From ChEMBL document CHEMBL1201862, “PubChem BioAssay data set” (2004)
Where “and” joins values, the source holds several entries; their conditions need not be identical. Equal entries are not always repeated.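 Method: 48-hour compound exposure of cells in 96-well plates, five concentrations, linear interpolation of endpoints. Abbreviation: GI50, concentration required for 50% inhibition of growth.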 Calls of active or inactive are those of the source. No stated cut-off is given here; in the data, active = GI50 up to about 1.1 µM and inactive = higher.

What was measured:
Assay in all cases: NCI-60 cell line screen, 48 h
ACHN = test system: ACHN
BT-549 = test system: BT-549
HL-60 = test system: HL-60
HOP-62 = test system: HOP-62
HT-29 = test system: HT-29
K562 = test system: K562
MDA-N = test system: MDA-N
Malme-3M = test system: Malme-3M
OVCAR-3 = test system: OVCAR-3
PC-3 = test system: PC-3
SF-268 = test system: SF-268
SF-539 = test system: SF-539
SK-MEL-28 = test system: SK-MEL-28
SN12C = test system: SN12C
T47D = test system: T47D
U-251 = test system: U-251
UO-31 = test system: UO-31
COLO 205 = test system: COLO 205
MDA-MB-435 = test system: MDA-MB-435
NCI/ADR-RES = test system: NCI/ADR-RES

| Structure (SMILES) | GI50 (ACHN) | GI50 (BT-549) | GI50 (HL-60) | GI50 (HOP-62) | GI50 (HT-29) | GI50 (K562) | GI50 (MDA-N) | GI50 (Malme-3M) | GI50 (OVCAR-3) | GI50 (PC-3) | GI50 (SF-268) | GI50 (SF-539) | GI50 (SK-MEL-28) | GI50 (SN12C) | GI50 (T47D) | GI50 (U-251) | GI50 (UO-31) | GI50 (COLO 205) | GI50 (MDA-MB-435) | GI50 (NCI/ADR-RES) |
| --- | --- | --- | --- | --- | --- | --- | --- | --- | --- | --- | --- | --- | --- | --- | --- | --- | --- | --- | --- | --- |
| COc1ccc(-c2c(C#N)c(N)n(C3OC(CO)C(O)C(O)C3O)c(=S)c2C#N)cc1 (stereo not drawn) | 87.9 µM (inactive) and 97.3 µM (inactive) | > 100 µM (inactive) and 76.9 µM (inactive) | > 100 µM (inactive) | > 100 µM (inactive) and 51.9 µM (inactive) | > 100 µM (inactive) | > 100 µM (inactive) | > 100 µM (inactive) | > 100 µM (inactive) | > 100 µM (inactive) and 97.7 µM (inactive) | > 100 µM (inactive) and 99.1 µM (inactive) | > 100 µM (inactive) | > 100 µM (inactive) | > 100 µM (inactive) | > 100 µM (inactive) | > 100 µM (inactive) and 93.3 µM (inactive) | > 100 µM (inactive) | 82.2 µM (inactive) |  |  |  |
| CCOC(=O)c1cc(C2(OC)CCN(Cc3ccccc3)C2=O)c(-c2cc(C)no2)[nH]1 (stereo not drawn) | > 100 µM (inactive) | > 100 µM (inactive) |  | > 100 µM (inactive) | 75.7 µM (inactive) | > 100 µM (inactive) | > 100 µM (inactive) | > 100 µM (inactive) | > 100 µM (inactive) | > 100 µM (inactive) | > 100 µM (inactive) |  | > 100 µM (inactive) |  | > 100 µM (inactive) | > 100 µM (inactive) | > 100 µM (inactive) | > 100 µM (inactive) | > 100 µM (inactive) | > 100 µM (inactive) |
| CCOC(=O)c1ccc(-c2ccc(Cl)cc2)[nH]1 | > 10 µM (inactive) | > 10 µM (inactive) | > 10 µM (inactive) |  | > 10 µM (inactive) | > 10 µM (inactive) | 5.45 µM (inactive) | > 10 µM (inactive) | > 10 µM (inactive) | 0.0161 µM (active) | > 10 µM (inactive) | > 10 µM (inactive) |  | > 10 µM (inactive) |  | > 10 µM (inactive) | > 10 µM (inactive) |  | > 10 µM (inactive) | > 10 µM (inactive) |
| Cc1cn(C2CCC(/C=N\O)O2)c(=O)[nH]c1=O (stereo not drawn) | > 100 µM (inactive) | > 100 µM (inactive) |  | > 100 µM (inactive) | > 100 µM (inactive) | > 100 µM (inactive) | > 100 µM (inactive) |  | > 100 µM (inactive) | > 100 µM (inactive) |  | > 100 µM (inactive) | > 100 µM (inactive) | > 100 µM (inactive) | > 100 µM (inactive) | > 100 µM (inactive) | > 100 µM (inactive) | > 100 µM (inactive) | > 100 µM (inactive) | > 100 µM (inactive) |
| CC1(c2ccccc2)CCN(C2CC2)CO1 (stereo not drawn) | 17.9 µM (inactive) | 18.3 µM (inactive) | 45.2 µM (inactive) | > 100 µM (inactive) | 17.9 µM (inactive) | 15.3 µM (inactive) | 15.1 µM (inactive) | 19.9 µM (inactive) | 17.7 µM (inactive) | > 100 µM (inactive) | 16.8 µM (inactive) |  | 19.7 µM (inactive) | 16.8 µM (inactive) | 17.3 µM (inactive) | > 100 µM (inactive) | 18.5 µM (inactive) | 21.6 µM (inactive) | 49.9 µM (inactive) | 20.7 µM (inactive) |
| CC(=O)OC(C)(C)CCC(=O)[C@](C)(O)[C@H]1[C@H](O)C[C@@]2(C)[C@@H]3CCc4c(cc(OC5OC(CO)C(O)C(O)C5O)c(O)c4C)C3(C)C(=O)C[C@]12C (stereo partly drawn) | > 100 µM (inactive) | > 100 µM (inactive) |  | > 100 µM (inactive) | > 100 µM (inactive) | > 100 µM (inactive) | > 100 µM (inactive) | > 100 µM (inactive) | > 100 µM (inactive) | > 100 µM (inactive) | > 100 µM (inactive) | > 100 µM (inactive) | > 100 µM (inactive) | > 100 µM (inactive) | > 100 µM (inactive) | > 100 µM (inactive) | > 100 µM (inactive) | > 100 µM (inactive) | > 100 µM (inactive) | > 100 µM (inactive) |
| CC1=C(CO)C(=O)O[C@@H]([C@@H](CO)[C@H]2CCC3C4C[C@@H](O)[C@@]5(O)CC=CC(=O)[C@]5(C)C4CC[C@@]32C)C1 (stereo partly drawn) | 36.4 µM (inactive) | 26.4 µM (inactive) | 31.2 µM (inactive) | 23.5 µM (inactive) | 44.2 µM (inactive) | 31.8 µM (inactive) | 71.9 µM (inactive) | 94 µM (inactive) | 22 µM (inactive) |  | 43.3 µM (inactive) | 53.8 µM (inactive) |  | 55.2 µM (inactive) | 86.3 µM (inactive) |  | 24.4 µM (inactive) | 30 µM (inactive) | 38.5 µM (inactive) | > 100 µM (inactive) |
| COc1cc(/C=C2\N=C(c3ccccc3)N(c3ccc4c(c3)Sc3cc(N5C(=O)/C(=C/c6cc(OC)c(OC)c(OC)c6)N=C5c5ccccc5)ccc3N4)C2=O)cc(OC)c1OC | 19 µM (inactive) | 23.4 µM (inactive) | 26.9 µM (inactive) | 25.5 µM (inactive) | > 100 µM (inactive) | 21 µM (inactive) | 19.8 µM (inactive) | 19.5 µM (inactive) | 20.8 µM (inactive) | 19.6 µM (inactive) | 18.4 µM (inactive) |  | 40.6 µM (inactive) | 25.9 µM (inactive) | 25.2 µM (inactive) | 21 µM (inactive) | 31.3 µM (inactive) | 20.9 µM (inactive) | 18 µM (inactive) | 31 µM (inactive) |
| Cc1ccccc1S(=O)(=O)Nn1cnc2ccc(S(=O)(=O)Nc3ccc(Cl)cc3)cc2c1=O | > 100 µM (inactive) | > 100 µM (inactive) | > 100 µM (inactive) | > 100 µM (inactive) | > 100 µM (inactive) | 10 µM (inactive) | 53.1 µM (inactive) | > 100 µM (inactive) | 85.5 µM (inactive) | 16.1 µM (inactive) | > 100 µM (inactive) | > 100 µM (inactive) | > 100 µM (inactive) | > 100 µM (inactive) |  | > 100 µM (inactive) | 18.1 µM (inactive) | > 100 µM (inactive) | 82.8 µM (inactive) | > 100 µM (inactive) |
| COc1ccc(C2c3cc4c(cc3OC(NNc3ccccc3)C2C)OCO4)cc1 (stereo not drawn) | 1.93 µM (inactive) | 20.4 µM (inactive) | 5.25 µM (inactive) | 3.5 µM (inactive) | 11.6 µM (inactive) | 1.7 µM (inactive) | 8.71 µM (inactive) | 8.47 µM (inactive) | 4.82 µM (inactive) | 4.8 µM (inactive) | 20.3 µM (inactive) | 2.36 µM (inactive) | 26.4 µM (inactive) | 11 µM (inactive) | 6.12 µM (inactive) | 7.35 µM (inactive) | 4.33 µM (inactive) | 7.06 µM (inactive) | 4.71 µM (inactive) |  |
| C=CCNC1=C2C[C@@H](C)C[C@@H](OC)[C@H](OC(=O)CN)[C@H](C)/C=C(\C)[C@@H](OC(N)=O)[C@H](OC)/C=C\C=C(/C)C(=O)NC(=CC1=O)C2=O | 5.13 µM (inactive) | 10.3 µM (inactive) | 1.69 µM (inactive) | 0.521 µM (active) | 0.0406 µM (active) | 0.337 µM (active) | 0.223 µM (active) | 0.456 µM (active) | 1.16 µM (inactive) | 0.4 µM (active) | 5.73 µM (inactive) | 0.883 µM (active) | 2.05 µM (inactive) | 0.497 µM (active) |  | 1.29 µM (inactive) | 5.87 µM (inactive) | 0.204 µM (active) | 0.418 µM (active) | 36.1 µM (inactive) |
| CSC1=N[C@H](c2ccccc2)CS1 | > 100 µM (inactive) | > 100 µM (inactive) |  | > 100 µM (inactive) | > 100 µM (inactive) | > 100 µM (inactive) | > 100 µM (inactive) |  | > 100 µM (inactive) | > 100 µM (inactive) |  | > 100 µM (inactive) | > 100 µM (inactive) | > 100 µM (inactive) | > 100 µM (inactive) | > 100 µM (inactive) | > 100 µM (inactive) | > 100 µM (inactive) | > 100 µM (inactive) | > 100 µM (inactive) |
| COc1ccc2c(c1OC)C[C@@H]1c3c(cc4c(c3-2)OCO4)CCN1C | 27.5 µM (inactive) | 23.8 µM (inactive) | 8.63 µM (inactive) | 72.8 µM (inactive) | 15.8 µM (inactive) | 20.3 µM (inactive) | 44.1 µM (inactive) | 30.6 µM (inactive) | 41.1 µM (inactive) | 17.5 µM (inactive) | 37.1 µM (inactive) | 19 µM (inactive) | 29.2 µM (inactive) | 42 µM (inactive) | 28.8 µM (inactive) | 26.9 µM (inactive) | 10.8 µM (inactive) | 18.6 µM (inactive) | 27.5 µM (inactive) |  |
| COC(=O)C1(C(=O)OC)N=C(C)OC1C(C)C (stereo not drawn) | > 100 µM (inactive) | > 100 µM (inactive) | 37.5 µM (inactive) | > 100 µM (inactive) |  | > 100 µM (inactive) | > 100 µM (inactive) |  | > 100 µM (inactive) | > 100 µM (inactive) |  |  | > 100 µM (inactive) | > 100 µM (inactive) | > 100 µM (inactive) | > 100 µM (inactive) | > 100 µM (inactive) | > 100 µM (inactive) | > 100 µM (inactive) | > 100 µM (inactive) |
| CCCCNC(=S)Nc1nc(C(=O)NNC(=O)c2ccccc2)cs1 | 15.9 µM (inactive) | 18.1 µM (inactive) | 96.6 µM (inactive) | 18 µM (inactive) | 24 µM (inactive) | 44.5 µM (inactive) | 17.5 µM (inactive) | 18.7 µM (inactive) | 6.14 µM (inactive) | 15.5 µM (inactive) | 25.9 µM (inactive) |  |  | 17.3 µM (inactive) | 11.5 µM (inactive) | 11.8 µM (inactive) | 14.1 µM (inactive) | 13.3 µM (inactive) | 19.7 µM (inactive) | 16.9 µM (inactive) |
